This note sets out measurements from patent publication US12383556B2, “Methods of treating Sjögren's syndrome using a Bruton's tyrosine kinase inhibitor” (NOVARTIS AG, priority 2019, dated 2025).

This data set is described as follows: First-in-human Part 4 multiple dose b.i.d. blood PK. The format is in vivo. An excerpt:
First-in-human study in up to approximately 168 healthy volunteers (HVs), of which 64 (in Parts 2 & 4) had asymptomatic atopic diathesis. • Part 1 was a double-blind (subject and investigator blind, sponsor unblinded), placebo-controlled single ascending dose (SAD) escalation study of 10 cohorts (N=80) • Part 2 was a double-blind (subject and investigator blind, sponsor unblinded), placebo-controlled multiple ascending dose (MAD) (13 doses over 12 days) escalation study employing once daily dosing in 6 cohorts in healthy volunteers with asymptomatic atopic diathesis (N=48) • Part 3 was a single dose open-label crossover food effect study in 12 HVs • Part 4 was a double-blind (subject and investigator blind, sponsor unblinded), placebo-controlled multiple dose (25 doses over 12 days) study employing twice daily dosing in 2 cohorts of healthy volunteers with asymptomatic atopic diathesis (N=16)
In Parts 2 and 4, subjects were admitted on Day −2 or −1 for baseline safety assessments and to confirm eligibility. Eligible subjects received the first dose of compound (I) under fasting conditions on Day 1, and continued to take study medication under fasting conditions up to and including Day 12. Subjects were domiciled from Day −2 or −1 until the morning of Day 16, which equals 96 hours after the last dose of compound (I) was received. In Parts 2 and 4, the study medication was given once daily and twice daily respectively (details are found in the schedule of assessments).
Subjects were assigned to one of the following cohorts. In each cohort, 8 subjects were randomized to either Compound (I) or matching placebo in a 6:2 ratio. • Cohort 1: multiple oral doses of 100 mg Compound (I) or matching placebo in a bid regimen • Cohort 2: multiple oral doses of 200 mg Compound (I) or matching placebo in a bid regimen
Pharmacokinetic samples were obtained in blood and evaluated in all subjects at all dose levels. The samples from placebo subjects were not analyzed. […] Compound (I) concentrations were determined in blood by a validated LC-MS/MS method.

Broadly, the Tmax is the time at which the peak concentration occurs.

Regarding `C=CC(=O)N(C)CCOc1c(N)ncnc1-c1cc(F)cc(NC(=O)c2ccc(C3CC3)cc2F)c1C` [Compound of Formula (I), N-(3-(6-Amino-5-(2-(N-methylacrylamido)ethoxy)pyrimidin-4-yl)-5-fluoro-2-methylphenyl)-4-cyclopropyl-2-fluorobenzamide], where the note is “day 12”, the “increase of AUCtau from 100 mg to 200 mg b.i.d.” value is given as “dose proportional increase” and the “increase of Cmax from 100 mg to 200 mg b.i.d.” value was determined as 1.33 fold. Moreover, the Tmax (human, blood, oral, b.i.d. regimen 100 mg and 200 mg) is around 1 h.
